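Step 1: Grow cells in 96-well plates. Step 2: Expose to compound for 48 hours at 5 concentrations. Step 3: Interpolate endpoints linearly; if unreached, use highest concentration. TGI is the concentration that stops growth completely.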
Key:
Assay in all cases: growth of human tumour cells (NCI), 48 h
U251 CNS = test system: U251 CNS
A549 NSCLC = test system: A549 NSCLC
HOP-92 NSCLC = test system: HOP-92 NSCLC
HCT-15 colon = test system: HCT-15 colon
OVCAR-3 ovarian = test system: OVCAR-3 ovarian
SNB-19 CNS = test system: SNB-19 CNS
SK-MEL-2 melanoma = test system: SK-MEL-2 melanoma
NCI-H23 lung = test system: NCI-H23 lung
DU-145 prostate = test system: DU-145 prostate
UACC-62 melanoma = test system: UACC-62 melanoma
SF-295 CNS = test system: SF-295 CNS
SW-620 colon = test system: SW-620 colon
COLO 205 colon = test system: COLO 205 colon
RPMI-8226 leukemia = test system: RPMI-8226 leukemia
UACC-257 melanoma = test system: UACC-257 melanoma
HL-60(TB) leukemia = test system: HL-60(TB) leukemia
NCI-H460 lung = test system: NCI-H460 lung
HT29 colon = test system: HT29 colon
RXF 393 renal = test system: RXF 393 renal

Measured: TGI

CC(=O)Nc1ccc(C(=O)NN2C(=O)CSC2c2ccc(O)cc2)cc1 (stereo not drawn)
> 100 µM: all assays above

O=C1CSC(c2ccccc2)N1c1ccc(-n2c(-c3ccccc3)nc3ccccc3c2=O)cc1 (stereo not drawn)
> 100 µM: all assays above
